Among the data in patent US8987286B2, “Substituted pyrimido[1,2-b]indazoles and their use as modulators of the Pi3K/Akt pathway” (Bayer Intellectual Property GmbH, priority 2010, dated 2015) are IC50 values, retold here.

pIC50: −log10 of the molar value. Structures can show the parent of a compound that is named as a salt.

Chain of Akt1 (P31749 whole entry): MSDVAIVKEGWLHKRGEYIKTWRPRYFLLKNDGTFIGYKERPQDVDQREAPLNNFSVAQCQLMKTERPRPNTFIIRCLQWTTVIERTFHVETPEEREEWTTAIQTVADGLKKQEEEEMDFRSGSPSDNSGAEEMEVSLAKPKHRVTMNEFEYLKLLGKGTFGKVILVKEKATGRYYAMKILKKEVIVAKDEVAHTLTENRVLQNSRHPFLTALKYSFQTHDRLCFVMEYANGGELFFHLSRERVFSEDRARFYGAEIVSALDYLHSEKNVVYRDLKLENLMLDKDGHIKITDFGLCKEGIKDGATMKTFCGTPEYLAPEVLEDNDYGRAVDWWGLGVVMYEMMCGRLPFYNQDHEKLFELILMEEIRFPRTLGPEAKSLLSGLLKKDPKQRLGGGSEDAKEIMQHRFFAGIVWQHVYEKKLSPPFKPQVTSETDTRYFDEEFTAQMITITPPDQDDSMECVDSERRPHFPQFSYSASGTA

In the test the target is Akt1 (Homo sapiens (Human), UniProt P31749). Description: Akt1 kinase assay (Akt1 TR-FRET assay). In kind it is biochemical. The following applies: His-tagged human recombinant full-length Akt1, 10 μM ATP, 1 μM peptide substrate. From the text:
Biological Assay 1.0: Akt1 Kinase Assay
Akt1 inhibitory activity of compounds of the present invention was quantified employing the Akt1 TR-FRET assay as described in the following paragraphs.
His-tagged human recombinant kinase full-length Akt1 expressed in insect cells was purchased form Invitrogen (part number PV 3599). As substrate for the kinase reaction the biotinylated peptide biotin-Ahx-KKLNRTLSFAEPG (C-terminus in amide form) was used which can be purchased e.g. from the company Biosynthan GmbH (Berlin-Buch, Germany).
For the assay 50 nl of a 100 fold concentrated solution of the test compound in DMSO was pipetted into a black low volume 384 well microtiter plate (Greiner Bio-One, Frickenhausen, Germany), 2 μl of a solution of Akt1 in assay buffer [50 mM TRIS/HCl pH 7.5, 5 mM MgCl2, 1 mM dithiothreitol, 0.02% (v/v) Triton X-100 (Sigma)] were added and the mixture was incubated for 15 min at 22° C. to allow pre-binding of the test compounds to the enzyme before the start of the kinase reaction. Then the kinase reaction was started by the addition of 3 μl of a solution of adenosine-tri-phosphate (ATP, 16.7 μM=>final conc. in the 5 μl assay volume is 10 μM) and substrate (1.67 μM=>final conc. in the 5 μl assay volume is 1 μM) in assay buffer and the resulting mixture was incubated for a reaction time of 60 min at 22° C. The concentration of Akt1 in the assay was adjusted depending of the activity of the enzyme lot and was chosen appropriate to have the assay in the linear range, typical enzyme concentrations were in the range of about 0.05 ng/μl (final conc. in the 5 μl assay volume).
The reaction was stopped by the addition of 5 μl of a solution of HTRF detection reagents (200 nM streptavidine-XL665 [Cisbio] and 1.5 nM anti-phosho-Serine antibody [Millipore, cat. #35-001] and 0.75 nM LANCE Eu-W 1024 labeled anti-mouse IgG antibody [Perkin Elmer]) in an aqueous EDTA-solution (100 mM EDTA, 0.1% (w/v) bovine serum albumin in 50 mM HEPES/NaOH pH 7.5).
The resulting mixture was incubated 1 h at 22° C. to allow the binding of the biotinylated phosphorylated peptide to the streptavidine-XL665 and the antibodies. Subsequently the amount of phosphorylated substrate was evaluated by measurement of the resonance energy transfer from the anti-mouse-IgG-Eu-Chelate to the streptavidine-XL665. Therefore, the fluorescence emissions at 620 nm and 665 nm after excitation at 350 nm was measured in a HTRF reader, e.g. a Rubystar (BMG Labtechnologies, Offenburg, Germany) or a Viewlux (Perkin-Elmer). The ratio of the emissions at 665 nm and at […] was taken as the measure for the amount of phosphorylated substrate. The data were normalised (enzyme reaction without inhibitor=0% inhibition, all other assay components but no enzyme=100% inhibition).
As usually defined, the pIC50 is −log10 of the IC50, conventionally taken in molar units. Take `NC(=O)c1cccc(-c2ccc3c(c2)nn2cc(-c4ccccc4)c(-c4ccc(C5(N)CCC5)cc4)nc32)c1` [Example 4.9, 3-{2-[4-(1-Aminocyclobutyl)phenyl]-3-phenylpyrimido[1,2-b]indazol-8-yl}benzamide]: the pIC50 was 7.80.
As for `NC1(c2ccc(-c3nc4c5cccc(-c6ccc(CO)cc6)c5nn4cc3-c3ccccc3)cc2)CCC1` [Example 8.3, 4-{2-[4-(1-Aminocyclobutyl)phenyl]-3-phenylpyrimido[1,2-b]indazol-7-yl}benzyl alcohol formiate], the pIC50 was 6.14.
In the case of `NC1(c2ccc(-c3nc4c5cc(-c6ccc(S(N)(=O)=O)cc6)ccc5nn4cc3-c3ccccc3)cc2)CCC1` [Example 6.5, 4-{2-[4-(1-Aminocyclobutyl)phenyl]-3-phenylpyrimido[1,2-b]indazol-9-yl}benzenesulfonamide formiate] it was 7.51; in that of `COC(=O)c1ccc(-c2ccc3c(c2)nn2cc(-c4ccccc4)c(-c4ccc(C5(N)CCC5)cc4)nc32)cn1` [Example 4.13, 5-{2-[4-(1-Aminocyclobutyl)phenyl]-3-phenylpyrimido[1,2-b]indazol-8-yl}pyridine-2-carboxylic acid methyl ester], 7.64.
Consider `NC1(c2ccc(-c3nc4c5ccc(-c6ccc(F)c(O)c6)cc5nn4cc3-c3ccccc3)cc2)CCC1` [Example 4.5, 5-{2-[4-(1-Aminocyclobutyl)phenyl]-3-phenylpyrimido[1,2-b]indazol-8-yl}-2-fluorophenol formiate], for which the negative logarithm of the IC50 (pIC50) is 7.46.
In the case of `CS(=O)(=O)c1cccc(-c2ccc3c(c2)nn2cc(-c4ccccc4)c(-c4ccc(C5(N)CCC5)cc4)nc32)c1` [Example 4.7, 1-{4-[8-(3-Mesylphenyl)-3-phenylpyrimido[1,2-b]indazol-2-yl]phenyl}cyclobutylamine formiate] it was 7.60.
For the compound `NC(=O)/C=C/c1ccc2nn3cc(-c4ccccc4)c(-c4ccc(C5(N)CCC5)cc4)nc3c2c1` [Example 15.5, (E)-3-{2-[4-(1-Aminocyclobutyl)phenyl]-3-phenylpyrimido[1,2-b]indazol-9-yl}acrylamide], the pIC50 was 7.52.
In the case of `Cc1ccc(-c2ccc3nn4cc(-c5ccccc5)c(-c5ccc(C6(N)CCC6)cc5)nc4c3c2)cc1` [Example 5.1, 1-[4-(3-Phenyl-9-p-tolylpyrimido[1,2-b]indazol-2-yl)phenyl]cyclobutylamine] it was 6.92; in that of `NC1(c2ccc(-c3nc4c5ccc(Br)cc5nn4cc3-c3ccccc3)cc2)CCC1` [Example 4.3, 1-[4-(8-Bromo-3-phenylpyrimido[1,2-b]indazol-2-yl)phenyl]cyclobutylamine hydrochloride], 7.06.
In the case of `NC(=O)c1ccc(-c2ccc3c(c2)nn2cc(-c4ccccc4)c(-c4ccc(C5(N)CCC5)cc4)nc32)cc1` [Example 4.10, 4-{2-[4-(1-Aminocyclobutyl)phenyl]-3-phenylpyrimido[1,2-b]indazol-8-yl}benzamide] it was 7.68.
